# In patent publication US20070219212A1, “Pyranouidole Derivatives and the Use Thereof for the Treatment of Hepatitis C Virus Infection or Disease” (priority 2004, published 2007):
# Like-named read-outs stand apart in the source and are kept apart here.
# Legend:
# [1] = biological target: T1, NS5B from the BK strain (genotype 1b) (Hepatitis C virus genotype 1b, UniProt P26663); experiment: Hepatitis C polymerase (NS5B, BK strain) inhibition, radioactive filter assay; type: biochemical; conditions: NS5B BK strain (genotype 1b)
# T1 construct: NS5B from the BK strain (genotype 1b) is expressed in E coli as a protein in which the 21 C-terminal amino acids are replaced; made in house; host or cells: E. coli
# Excerpt: (§1) The ability of the compounds of the present invention to inhibit Hepatitis C Polymerase was established by the following experimental procedure:
# NS5B from the BK strain (genotype 1b) is expressed in E coli as a protein in which the 21 C-terminal amino acids are replaced with a short linker and a hexahistidine tag ([…]). The purified protein is mixed with radioactive nucleotides and allowed to replicate a heteropolymeric RNA substrate, primed by an endogenous short hairpin, resulting in an approximately 760 nt product. The radioactive product is captured on a filter and quantitated after removal of the unincorporated nucleotides.
# (§2) • 0.5M Na Phosphate buffer. Per liter, weigh 134 gr Na2HPO4.7H2O, add water to 900 ml. Adjust pH to 7.0 with phosphoric acid. Top off with water to 1 L. • Dilute nucleotides 1:1000 to 10 μM (GTP and CTP) or 1:100 to 100 μM (ATP and UTP) into RNase free water. Procedure: • (1) Compounds 10 μl at […] in 15% dimethylsulfoxide (DMSO) When starting from 100 μg/ml compound stock in 1% DMSO: Dispense 5 μl 30% DMSO per well Dispense 5 μl compound (100 μg/ml) per well. When starting from 50 μg/ml compound stock in 15% DMSO: Add 10 μl compound per well.
# (§3) Add 20 μl enzyme mix into each well of the assay plate. Incubate compound and enzyme at room temperature for 15 minutes • (3) Template mix—prepare ahead
# (§4) Spin down a tube of RNA (5 μg/tube stored in 75% ethanol and 0.3 M sodium acetate) in a microcentrifuge for 20 minutes at 4° C. One tube is enough for 1-1.5 plates. Remove as much ethanol from the tube as possible by inverting the tube. Be gentle, pellet RNA may not adhere to the tube. Vacuum dry the RNA. Resuspend the RNA by adding 1 ml of DEPC water, close the cap of the tube tightly. To dissolve RNA, incubate RNA solution on ice for ˜60 minutes and gently vortex. Spin briefly to ensure all RNA solution is down to the bottom of the tube before opening cap. Gently transfer RNA solution into a 5 ml or larger tube. Add another 3 ml of DEPC water (total 4 ml of volume).
# (§5) Add the following volumes of reagents
# (§6) Add 20 μl template mix per reaction (i.e. 20 ng of pOF per reaction or ˜3 nM) • (4) Incubate reaction at room temperature (22-25° C.) for 2 hours. • (5) Stop reaction by adding 50 μl of 170 mM EDTA.
# (§7) Final concentration of EDTA is 85 mM. • (6) Prewet filters of Millipore multiscreen assay plate by adding 200 μl of 0.5 M sodium phosphate buffer, pH 7.0 into each well. Let stand at room temperature for 2-3 minutes. • (7) Place the multiscreen filter plate onto a Millipore Manifold and turn on vacuum to allow buffer to flow through. Turn off vacuum. Transfer 80 μl of the reaction product into each well of the filter plate. Let stand for 2-3 minutes. Turn on vacuum to filter reaction product. • (8) Turn off vacuum. Add 200 μl of 0.5 M sodium phosphate buffer, pH 7.0 into each well to wash filter. Turn on vacuum.
# (§8) Repeat step (8) three more times. • (9) Remove polypropylene bottom. Spot dry filter at the bottom with paper towel. Air dry filter plate on a bench for 1 hour. Add 40 μl Super Mix scintillant. Seal top of the plate with a tape. Place plate into a Packard carrier or micro-beta carrier. • (10) Count plate using a Packard Topcount or micro-beta counter. Count (for example using Program 10) for ^33P in Top count or ^33P program in micro-beta.
# (§9) See, Ferrari et al. 1999. J. Virology 73:1649-1654: “Characterization of soluble Hepatitis C virus RNA-dependent RNA polymerase expressed in E. coli and Takamizawa et al. 1991” and J. Virology 65:1105-1113: “Structure and characterization of the Hepatitis C virus genome isolated from human carriers,” both references are hereby incorporated by reference.
# [2] = biological target: BB7 RNA-dependent RNA polymerase hepatitis C virus protein (Con1 HCV sequence) (Hepatitis C virus genotype 1b, UniProt Q9WMX2); experiment: Hepatitis C polymerase (BB7) inhibition; type: biochemical
# Excerpt: For purposes of this invention, the term “BB7” denotes an RNA-dependent RNA polymerase hepatitis C virus protein sequence which is derived from HCV replicon. A discussion of BB7 and related technology can be found in Blight, K. et al. (2000) Science 290:1972-1974. BB7 can be licensed from Apath, LLC (893 North Warson Road, Saint Louis Mo. 63141, USA). BB7 is also referred to as Con1 HCV sequence and discussions of Con1 can be found in the following references: Lohmann, V. et al. (1999) Science 285:110-113; Pietschmann, T. et al. (2001) J. Virol. […]:1252-1264; Lohmann, V. et al. (2001) J. Virol. 75:1437-1449.
# as §1, §2, §3, §4, §5, §6, §7, §8, §9
# [3] = BB7 (Con1) NS5B, read-out: BB7 IC50
# T1 sequence (P26663 2420-2989): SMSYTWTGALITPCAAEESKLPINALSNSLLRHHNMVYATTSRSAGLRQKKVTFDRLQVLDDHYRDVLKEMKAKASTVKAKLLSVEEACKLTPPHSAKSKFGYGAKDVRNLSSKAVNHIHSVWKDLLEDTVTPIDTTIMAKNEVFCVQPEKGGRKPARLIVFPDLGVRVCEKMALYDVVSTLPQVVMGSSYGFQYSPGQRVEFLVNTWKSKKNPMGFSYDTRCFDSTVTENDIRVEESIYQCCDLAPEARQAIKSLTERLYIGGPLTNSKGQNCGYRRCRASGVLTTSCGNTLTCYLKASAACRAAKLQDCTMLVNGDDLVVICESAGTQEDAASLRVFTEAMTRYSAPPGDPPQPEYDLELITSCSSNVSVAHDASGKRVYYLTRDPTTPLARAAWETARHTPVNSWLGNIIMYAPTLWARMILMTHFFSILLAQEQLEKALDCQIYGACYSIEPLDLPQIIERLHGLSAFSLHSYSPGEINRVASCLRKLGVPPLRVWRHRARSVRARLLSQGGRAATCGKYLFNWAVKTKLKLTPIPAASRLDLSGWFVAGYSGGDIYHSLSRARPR
# Chain of BB7 RNA-dependent RNA polymerase hepatitis C virus protein (Con1 HCV sequence) (Q9WMX2 2420-3010): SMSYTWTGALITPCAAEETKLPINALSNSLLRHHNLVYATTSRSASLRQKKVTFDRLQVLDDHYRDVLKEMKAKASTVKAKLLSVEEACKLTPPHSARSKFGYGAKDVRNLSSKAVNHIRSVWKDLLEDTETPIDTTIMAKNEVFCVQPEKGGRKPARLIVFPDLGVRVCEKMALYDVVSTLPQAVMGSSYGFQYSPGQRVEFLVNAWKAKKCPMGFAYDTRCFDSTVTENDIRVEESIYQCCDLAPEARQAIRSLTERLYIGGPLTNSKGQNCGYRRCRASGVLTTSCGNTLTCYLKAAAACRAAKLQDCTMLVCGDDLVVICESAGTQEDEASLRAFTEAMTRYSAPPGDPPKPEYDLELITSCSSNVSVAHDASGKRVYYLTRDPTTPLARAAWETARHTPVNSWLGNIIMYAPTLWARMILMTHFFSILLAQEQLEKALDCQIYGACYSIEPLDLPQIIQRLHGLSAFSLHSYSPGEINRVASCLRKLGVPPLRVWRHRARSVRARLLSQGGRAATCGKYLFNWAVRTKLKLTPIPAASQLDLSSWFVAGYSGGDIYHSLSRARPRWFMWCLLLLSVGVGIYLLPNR
Molecule,IC50 [1] [µM],IC50 [2] [µM],"IC50 [2, 3] [µM]"
CCCC1(CC(=O)O)OCCc2c1[nH]c1c(C)c(OCc3ccnc(N)c3)cc(C#N)c21 (stereo not drawn) [Example 54],< 0.5,< 0.5,–
CCC[C@]1(CC(=O)O)OCCc2c1[nH]c1c(C)c(O)cc(C#N)c21 [Example 46],< 0.5,< 0.5,–
CCCC1(CC(=O)O)OCCc2c1[nH]c1c(C)c(OCc3csc(C(C)(C)C)n3)cc(C#N)c21 (stereo not drawn) [Example 85],< 0.5,< 0.5,–
CCCC1(CC(=O)O)OCCc2c1[nH]c1c(C)c(OCc3ccc(C(F)(F)F)nc3)cc(C#N)c21 (stereo not drawn) [Example 73],< 0.5,< 0.5,–
"(7-Benzyloxymethyl-5-cyano-8-methyl-1-propyl-1,3,4,9-tetrahydro-pyrano[3,4-b]indol-1-yl)-acetic acid [Example 15]",< 0.5,–,< 0.5
"CCC[C@]1(CC(=O)O)OCCc2c1[nH]c1c(C)c(OCc3nsc(N(C)C)n3)cc(C#N)c21 [Example 30, (R)-[5-Cyano-7-(5-dimethylamino-[1,2,4]thiadiazol-3-ylmethoxy)-8-methyl-1-propyl-1,3,4,9-tetrahydro-pyrano[3,4-b]indol-1-yl]-acetic acid]",< 0.5,< 0.5,–
CCCC1(CC(=O)O)OCCc2c1[nH]c1c(C)c(OCc3nccs3)cc(C#N)c21 (stereo not drawn) [Example 60],< 0.5,< 0.5,–
CCC[C@]1(CC(=O)O)OCCc2c1[nH]c1c(C)c(OCc3ccnc(C)c3)cc(C#N)c21 [Example 53],< 0.5,< 0.5,–
"CCCC1(CC(=O)O)OCCc2c1[nH]c1c(C)c(CO[C@@H]3CCOC3)cc(C#N)c21 (mixture of isomers) [Example 14, (3′R,1S*)[5-Cyano-8-methyl-1-propyl-7-(tetrahydro-furan-3-yloxymethyl)-1,3,4,9-tetrahydro-pyrano[3,4-b]indol-1-yl]-acetic acid]",0.5 to 5,0.5 to 5,–
CCCC1(CC(=O)O)OCCc2c1[nH]c1c(C)c(OCc3nnnn3C)cc(C#N)c21 (stereo not drawn) [Example 116],< 0.5,< 0.5,–
"CCC[C@]1(CC(=O)O)OCCc2c1[nH]c1c(C)c(OCc3cc(C)on3)cc(C#N)c21 [Example 23, (R)-[5-Cyano-8-methyl-7-(5-methyl-isoxazol-3-ylmethoxy)-1-propyl-1,3,4,9-tetrahydro-pyrano[3,4-b]indol-1-yl]-acetic acid]",< 0.5,< 0.5,–
CCCC1(CC(=O)O)OCCc2c1[nH]c1c(C)c(OCc3cc(C)nn3C)cc(C#N)c21 (stereo not drawn) [Example 66],< 0.5,< 0.5,–
CCCC1(CC(=O)O)OCCc2c1[nH]c1c(C)c(OCc3cc[n+]([O-])cc3)cc(C#N)c21 (stereo not drawn) [Example 71],< 0.5,< 0.5,–
CCCC1(CC(=O)O)OCCc2c1[nH]c1c(C)c(OC[C@H]3CCC(=O)N3)cc(C#N)c21 (stereo partly drawn) [Example 101],< 0.5,< 0.5,–
CCCC1(CC(=O)O)OCCc2c1[nH]c1c(C)c(OCC(C)=NOCC)cc(C#N)c21 (stereo not drawn) [Example 104],< 0.5,< 0.5,–
CCCC1(CC(=O)O)OCCc2c1[nH]c1c(C)c(OC[C@@H]3CCC(=O)N3)cc(C#N)c21 (stereo partly drawn) [Example 97],< 0.5,< 0.5,–
CCCC1(CC(=O)O)OCCc2c1[nH]c1c(C)c(OCc3ccnc(C(C)O)c3)cc(C#N)c21 (stereo not drawn) [Example 92],< 0.5,< 0.5,–

Molecule,IC50 [1] [µM],IC50 [2] [µM],"IC50 [2, 3] [µM]"
CCCC1(C(=O)O)OCCc2c1[nH]c1c(C)c(OCc3ccncc3)cc(C#N)c21 (stereo not drawn) [Example 37],< 0.5,< 0.5,–
"CCCC1(CC(=O)O)OCCc2c1[nH]c1c(C)c(COCc3ccc(C)cc3C)cc(C#N)c21 (stereo not drawn) [Example 17, [5-Cyano-7-(2,4-dimethyl-benzyloxymethyl)-8-methyl-1-propyl-1,3,4,9-tetrahydro-pyrano[3,4-b]indol-1-yl]-acetic acid]",0.5 to 5,> 5,–
CCCC1(CC(=O)O)OCCc2c1[nH]c1c(C)c(OCc3ccon3)cc(C#N)c21 (stereo not drawn) [Example 124],< 0.5,< 0.5,–
"CCCC1(CC(=O)O)OCCc2c1[nH]c1c(C)c(COCc3ccc4c(c3)OCO4)cc(C#N)c21 (stereo not drawn) [Example 16, [7-(Benzo[1,3]dioxol-5-ylmethoxymethyl)-5-cyano-8-methyl-1-propyl-1,3,4,9-tetrahydro-pyrano[3,4-b]indol-1-yl]-acetic acid]",0.5 to 5,< 0.5,–
CCCC1(CC(=O)O)OCCc2c1[nH]c1c(C)c(OCc3ccc(C)nc3)cc(C#N)c21 (stereo not drawn) [Example 70],< 0.5,< 0.5,–
CCCC1(CC(=O)O)OCCc2c1[nH]c1c(C)c(OCc3ccnc(C(C)=O)c3)cc(C#N)c21 (stereo not drawn) [Example 90],< 0.5,< 0.5,–
"CCCC1(CC(=O)O)OCCc2c1[nH]c1c(C)c(COC3CCC3)cc(C#N)c21 (stereo not drawn) [Example 6, (5-Cyano-7-cyclobutoxymethyl-8-methyl-1-propyl-1,3,4,9-tetrahydro-pyrano[3,4-b]indol-1-yl)-acetic acid]",0.5 to 5,< 0.5,–
CCCC1(CC(=O)O)OCCc2c1[nH]c1c(C)c(OCCCSC)cc(C#N)c21 (stereo not drawn) [Example 142],< 0.5,< 0.5,–
"CCCC1(CC(=O)O)OCCc2c1[nH]c1c(C)c(OCc3ccncc3)cc(C#N)c21 (stereo not drawn) [Example 24, [5-Cyano-8-methyl-1-propyl-7-(pyridin-4-ylmethoxy)-1,3,4,9-tetrahydro-pyrano[3,4-b]indol-1-yl]-acetic acid]",< 0.5,< 0.5,–
CCCC1(CC(=O)O)OCCc2c1[nH]c1c(C)c(OCC3CCS(=O)(=O)CC3)cc(C#N)c21 (stereo not drawn) [Example 107],< 0.5,< 0.5,–
CCCC1(CC(=O)O)OCCc2c1[nH]c1c(C)c(OCc3cc(C)no3)cc(C#N)c21 (stereo not drawn) [Example 79],< 0.5,< 0.5,–
CCCC1(CC(=O)O)OCCc2c1[nH]c1c(C)c(OCC(C)O)cc(C#N)c21 (stereo not drawn) [Example 102],< 0.5,< 0.5,–
CCCC1(CC(=O)O)OCCc2c1[nH]c1c(C)c(OCc3nc(C)ccc3OC)cc(C#N)c21 (stereo not drawn) [Example 86],< 0.5,< 0.5,–
CCCC1(CC(=O)O)OCCc2c1[nH]c1c(C)c(OCc3cc(C(F)(F)F)n[nH]3)cc(C#N)c21 (stereo not drawn) [Example 129],< 0.5,–,< 0.5
CCCC1(CC(=O)O)OCCc2c1[nH]c1c(C)c(OCc3ccnc(NC(C)=O)c3)cc(C#N)c21 (stereo not drawn) [Example 93],< 0.5,< 0.5,–
CCCC1(CC(=O)O)OCCc2c1[nH]c1c(C)c(OCc3nsc(N(CC)CC)n3)cc(C#N)c21 (stereo not drawn) [Example 132],< 0.5,< 0.5,–
